Test results taken from PMC10305617, “Sesquiterpene Coumarin Ethers with Selective Cytotoxic Activities from the Roots of Ferula huber-morathii Peşmen (Apiaceae) and Unequivocal Determination of the Absolute Stereochemistry of Samarcandin” (Pharmaceuticals, 2023).
Where two headings read alike, the source gives them in different places.

Experiments:
[1] = test system: caspase-9; test: Caspase-9 colorimetric activity assay in COLO 205 cells; format: cell-based, Human; conditions: COLO 205, 24 h, highest concentration (131.58 µM)
Procedure: (§1) The caspase-3, -8, and -9 activities were detected by following the protocol of the caspase-3, -8, -9 colorimetric assay kits (Biovision, K106, K113, K119, Mountain View, CA, USA). The cells treated with mogoltadone (5) for 24 h were harvested and lysed with a RIPA (50 mM Tris-HCl, pH 8.0, 150 mM NaCl, 1% Nonidet P-40, 0.5% sodium deoxycholate and 0.1% SDS) cell lysis buffer. The lysed cells were centrifuged at 22,000 g for 30 min and the supernatant was collected in a tube. The samples (200 µg protein) were incubated with caspase substrates (final concentration, 200 µM) at 37° C for 2 h and read on a microplate reader at 405 nm. The fold-increase in enzyme activity was detected by comparison with the untreated control.

[2] = test system: MCF-7; test: MTS cell viability (cytotoxic activity) assay, MCF-7; format: cell-based, Human; conditions: for IC50: MCF-7, MTS, 72 h, mean ± SD, at least three experiments
Source text: (§2) Human colorectal cancer (COLO 205, CCL-222), breast cancer (MCF-7, HTB-22), chronic myelogenous leukemia (K-562, CCL-243), and umbilical vein/vascular endothelium (HUVEC, CRL-1730) cell lines were obtained from the American Type Culture Collection. The COLO 205, MCF-7, K-562, and HUVEC cell lines were maintained in Roswell Park Memorial Institute ([…], Wisent, Montreal, QC, CANADA), Eagle′s Minimum Essential Medium (EMEM, Wisent, Montreal, QC, CANADA), Iscove’s Modified Dulbecco’s Medium (IMDM, Wisent, Montreal, QC, CANADA), and Dulbecco′s Modified Eagle Medium (DMEM, Wisent, Montreal, QC, CANADA) supplemented with 10% fetal bovine serum (Capricorn, Ebsdorfergrund, Germany), 100 U/mL penicillin, and 100 µg/mL streptomycin (Wisent, Montreal, QC, CANADA), respectively. All of the cell lines were cultured at 37 °C in a humidified atmosphere containing 5% CO2.
(§3) A 3-[4,5-dimethylthiazol-2-yl]-5-[3-carboxymethoxyphenyl]-2-[4-sulfophenyl]-2H-tetrazolium, inner salt (MTS) cell viability assay was performed to evaluate the cytotoxic activities of the sesquiterpene coumarin ethers isolated from Ferula huber-morathii. HUVEC (1 × 10^4), COLO 205 (3 × 10^4), K-562 (3 × 10^4), and MCF7 (5 × 10^4) were plated in 96-well plates. Then, 24 h later, the tested compounds were dissolved in DMSO, and the cells were exposed to the different concentrations (131.58–1.028 µM) of the compounds for 72 h. Cisplatin and doxorubicin were used as a positive control. Next, an MTS/phenazine methosulfate (PMS) (Promega, Madison, WI, USA and Sigma, St. Louis, MO, USA respectively) mixture was added to each well and incubated for 1–4 h at 37 °C. The absorbance was read on a microplate reader (Biotek, Winooski, VT, USA) at 490 nm. The cytotoxic activities of the compounds were expressed as an IC50 value. The % inhibition of cell proliferation was calculated using the formula: % Inhibition = [1-(A490test/A490cont)] × 100, where A490test = absorbance of the test sample and A490cont = absorbance of the control sample [88]. The values of the 50% inhibition of the cell proliferation (IC50) were calculated by locating the x-axis values corresponding to one-half of the absorbance values of the sample.

[3] = test system: K-562; test: MTS cell viability (cytotoxic activity) assay, K-562; format: cell-based, Human; conditions: for IC50: K-562, MTS, 72 h, mean ± SD, at least three experiments
Source text: as §2, §3

[4] = test system: MCF-7; test: MTS cell viability (cytotoxic activity) assay, MCF-7; format: cell-based, Human; conditions: MCF-7, MTS, 72 h; root extracts
[5] = test system: COLO 205; test: MTS cell viability (cytotoxic activity) assay, COLO 205; format: cell-based, Human; conditions: COLO 205, MTS, 72 h, mean ± SD, at least three experiments
Source text: as §2, §3

[6] = test system: caspase-3; test: Caspase-3 colorimetric activity assay in COLO 205 cells; format: cell-based, Human; conditions: COLO 205, 24 h, highest concentration (131.58 µM)
Procedure: as §1

[7] = test system: K-562; test: MTS cell viability (cytotoxic activity) assay, K-562; format: cell-based, Human; conditions: K-562, MTS, 72 h; root extracts
[8] = test system: caspase-8; test: Caspase-8 colorimetric activity assay in COLO 205 cells; format: cell-based, Human; conditions: COLO 205, 24 h, highest concentration (131.58 µM)
Procedure: as §1

[9] = test system: HUVEC; test: MTS cell viability (cytotoxic activity) assay, non-cancerous HUVEC; format: cell-based, Human; conditions: 72 h, mean ± SD, at least three experiments
Source text: as §2, §3

[10] = test system: bladder cancer cells (5637); conditions: cited from earlier work
[11] = test system: cisplatin-resistant derivatives of the human ovarian (A2780P A2780/RCIS); conditions: cited from earlier work
[12] = test system: COLO 205, K-562, MCF-7 and HUVEC cell lines; test: MTS cytotoxicity, overall verbal grading over the cell line panel; format: cell-based, Human; conditions: authors' verbal summary over COLO 205, K-562, MCF-7, HUVEC
Source text: as §2, §3

[13] = test system: MCF-7 breast cancer cell line; conditions: cited from earlier work
[14] = test system: colon (HCT116); conditions: cited from earlier work
[15] = test system: chronic myelogenous leukemia (K562); conditions: cited from earlier work
[16] = test system: cervical (HeLa); conditions: cited from earlier work
[17] = test system: breast (MDA-MB-231); set-up: method as in PMID 23701832, PMID 26503061, PMID 30944714, PMID 27002410, PMID 33676992; conditions: cited from earlier work
[18] = test system: lung (A549); conditions: cited from earlier work
[19] = test system: ovarian (A2780); conditions: cited from earlier work
[20] = test system: ovarian carcinoma cells (CH1); set-up: method as in PMID 23701832; conditions: cited from earlier work
[21] = test system: melanoma (SK-MEL-28); conditions: cited from earlier work
[22] = test system: colorectal (HT29); set-up: method as in PMID 23701832, PMID 26503061, PMID 30944714, PMID 27002410, PMID 33676992; conditions: read-out: cytotoxic activity HT29; cited from earlier work
[23] = test system: stomach (AGS); set-up: method as in PMID 25843566, PMID 20961138, PMID 20628935, PMID 22351980, PMID 25818230; conditions: cited from earlier work
[24] = test system: β-catenin; test: Western blot, β-catenin protein level in COLO 205; format: cell-based, Human; conditions: COLO 205, 24 h
Procedure: (§4) To evaluate the effect of mogoltadone (5) on the caspase-3, Bcl-XL and β-catenin protein levels, the COLO 205 cell line was treated with mogoltadone (5) and incubated for 24 h. At the end of the incubation period, the treated cells were harvested. After that, the harvested cells were washed with cold phosphate buffered saline and lysed in a RIPA buffer. The samples were centrifuged at 24,000 g for 45 min at 4° C, and the supernatants were used to determine the procaspase-3, Bcl-XL, β-catenin, and β-actin protein levels by western blot analysis. The cellular proteins were separated on sodium dodecyl sulfate-polyacrylamide gels (SDS-PAGE, AnyKD mini protean TGX precast protein gel, Bio-Rad, Hercules, CA, USA, 4569033). The separated proteins were transferred to the polyvinylidene difluoride (PVDF) membrane using the Trans-Blot Turbo transfer system (Bio-Rad). The membrane was then blocked with a 5% non-fat milk blocking buffer and consecutively incubated with rabbit monoclonal Bcl-XL antibody (1:20,000, ab17884, Abcam), rabbit monoclonal caspase-3 antibody (1:3000, ab3235, Abcam, Cambridge, MA, USA), rabbit monoclonal beta-actin antibody (1:10,000, M01263, BOSTER, Beijing, China), and rabbit polyclonal β-catenin antibody (1/5,000, ab264263, Abcam, Cambridge, MA, USA) overnight at 4° C. […]

[25] = test system: caspase-3; test: Western blot, caspase-3 protein level in HUVEC; format: cell-based, Human
Procedure: as §4

[26] = test system: β-catenin; test: Western blot, β-catenin protein level in HUVEC; format: cell-based, Human
[27] = test system: Bcl-XL; test: Western blot, Bcl-XL protein level in COLO 205; format: cell-based, Human; conditions: COLO 205, 24 h
Procedure: as §4

[28] = test system: Bcl-XL; test: Western blot, Bcl-XL protein level in HUVEC; format: cell-based, Human
[29] = test system: procaspase-3; test: Western blot, procaspase-3 protein level in COLO 205; format: cell-based, Human; conditions: COLO 205, 24 h, significant at 131.58 µM
Procedure: as §4

N.N.[Cl][Pt][Cl] [Cisplatin, reference compound]
increase in caspase-9 activity compared with the control [1]: 2.07 fold | IC50 [2]: 64.2 ± 5.25 µM | IC50 [3]: 8.1 ± 0.25 µM | IC50 (µg/mL) MCF-7 [4]: 35.52 ± 0.76 µg/mL | IC50 [5]: 112 ± 3.11 µM | increase in caspase-3 activity compared with the control [6]: 6.73 fold | IC50 (µg/mL) K-562 [7]: 9.73 ± 0.30 µg/mL | increase in caspase-8 activity compared with the control [8]: 1.8 fold | IC50 [9]: 40.7 ± 1.12 µM

CC1=CC[C@@H]2C(C)(C)C(=O)CC[C@@]2(C)[C@@H]1COc1ccc2ccc(=O)oc2c1 [Conferone (1), conferone]
cytotoxic effect on bladder cancer cells (5637), in words [10]; 5637: no cytotoxic effect | IC50 ([2]; Homo sapiens, MCF7): 34 ± 0.68 µM | IC50 ([11]; A2780P A2780/RCIS, read-out: cytotoxic activity A2780P A2780/RCIS): 25 µM | IC50 ([3]; Homo sapiens, K562): 55.5 ± 0.94 µM | cytotoxicity in words ([12]; listed as 1): moderate or strong cytotoxicity | cytotoxicity in words ([12]; listed as conferone (1)): moderate cytotoxic effect | IC50 ([13]; read-out: cytotoxic activity MCF-7): > 100 µM | IC50 ([14]; HCT116, read-out: cytotoxic activity HCT116): 32 µM | cytotoxic activity K562 [15]: 86.12 µg/mL | IC50 ([16]; read-out: cytotoxic activity HeLa): 38 µM | cytotoxic activity MDA-MB-231 [17]: 30 µg/mL | IC50 ([5]; Homo sapiens): 27.6 ± 0.69 µM | IC50 ([18]; read-out: cytotoxic activity A549): 38 µM | IC50 ([19]; read-out: cytotoxic activity A2780): 32 µM | IC50 ([20]; ovarian carcinoma cells (CH1)): 7.8 µM | IC50 ([21]; read-out: cytotoxic activity SK-MEL-28): 64 µM | IC50 [22]: 20 µM | IC50 ([9]; Homo sapiens): 46.1 ± 0.99 µM

CC1=CC[C@@H]2C(C)(C)[C@H](O)CC[C@@]2(C)[C@@H]1COc1ccc2ccc(=O)oc2c1 [Feselol (3), feselol]
cytotoxic activity on bladder (TCC, 5637), in words ([10]; bladder (TCC, 5637)): did not show any cytotoxic activity | IC50 ([2]; Homo sapiens, MCF7): 36 ± 1.29 µM | cytotoxic activity on stomach (AGS), in words [23]: did not show any cytotoxic activity | IC50 ([3]; Homo sapiens, K562): 72.5 ± 0.74 µM | cytotoxicity in words [12]: moderate or strong cytotoxicity | IC50 ([14]; HCT-116, ref Soltani et al. 67, read-out: cytotoxic activity HCT-116): 28 µM | cytotoxic activity on K562, in words [15]: did not show any cytotoxic activity | cytotoxic activity on HeLa, in words [16]: did not show any cytotoxic activity | IC50 ([16]; ref Soltani et al. 67, read-out: cytotoxic activity HeLa): 35 µM | IC50 ([5]; Homo sapiens): 38.4 ± 0.8 µM | IC50 ([18]; ref Soltani et al. 67, read-out: cytotoxic activity A549): 26 µM | IC50 ([19]; ref Soltani et al. 67, read-out: cytotoxic activity A2780): 20 µM | IC50 ([9]; Homo sapiens): 38.8 ± 0.83 µM

C=C1CCC2C(C)(C)C(=O)CCC2(C)C1COc1ccc2ccc(=O)oc2c1 (centres unmarked) [Mogoltadone (5), mogoltadone]
increase in caspase-9 activity compared with the control [1]: 1.97 fold | effect on β-catenin levels [24]: decreased | effect on caspase-3 protein level [25]: did not have a statistically significant effect | selectivity index MCF-7 ([2]; HUVEC versus MCF-7): > 8.64 | IC50 ([2]; Homo sapiens, MCF7): 30.4 ± 0.6 µM | effect of combination with cisplatin on cisplatin cytotoxicity ([11]; A2780/RCIS cells, combination with cisplatin): significantly enhanced the cisplatin cytotoxicity | IC50 ([11]; A2780/RCIS, read-out: cytotoxic effect A2780/RCIS): > 50 µM | selectivity index K-562 ([3]; HUVEC versus K-562): > 12.46 | IC50 ([3]; Homo sapiens, K562): 21.1 ± 0.85 µM | effect on β-catenin protein level [26]: did not have a statistically significant effect | cytotoxicity in words [12]: moderate or strong cytotoxicity | IC50 ([13]; read-out: cytotoxic effect MCF-7): > 100 µM | effect on Bcl-XL level [27]: suppressed | IC50 ([5]; Homo sapiens): 31.71 ± 0.15 µM | effect on Bcl-XL protein level [28]: did not have a statistically significant effect | increase in caspase-3 activity compared with the control [6]: 4.72 fold | cytotoxic activity against A549, in words ([18]; ref Valiahdi et al. 29): did not find any potent cytotoxic activity | increase in caspase-8 activity compared with the control [8]: 2 fold | effect on procaspase-3 level [29]: decreased | cytotoxic effect against CH1, in words ([20]; ovarian carcinoma cell line (CH1)): moderate cytotoxic effects | cytotoxic activity against SK-MEL-28, in words ([21]; ref Valiahdi et al. 29): did not find any potent cytotoxic activity | IC50 ([9]; Homo sapiens): > 200 µM
